Reference: patent US11970494B2, “6-heteroaryloxy benzimidazoles and azabenzimidazoles as JAK2 inhibitors” (Ajax Therapeutics, Inc., priority 2021, dated 2024)
pKd: −log10 of the molar value.

target: T1, JAK2 (JH1 domain-catalytic, Y1007F,Y1008F) kinase (Homo sapiens, UniProt O60674, Y1007F/Y1008F); test: JAK2 Binding Assay (JAK2 JH1 Domain Binding Assay); details: JAK2 JH1 domain binding, qPCR detection; read-out: JAK2 Kd
T1 construct: made in house; host or cells: transiently transfected HEK293 cells
T1 sequence (O60674 849-1124 Y1007F/Y1008F limits assumed): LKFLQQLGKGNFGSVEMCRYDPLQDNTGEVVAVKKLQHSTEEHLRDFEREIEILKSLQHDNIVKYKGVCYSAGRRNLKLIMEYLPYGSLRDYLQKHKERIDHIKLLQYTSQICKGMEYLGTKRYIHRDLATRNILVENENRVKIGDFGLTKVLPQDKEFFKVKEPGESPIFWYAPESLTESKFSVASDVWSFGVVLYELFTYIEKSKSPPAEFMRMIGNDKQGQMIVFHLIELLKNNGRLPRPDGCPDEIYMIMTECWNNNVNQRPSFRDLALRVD

pKd	SMILES
7.30 to 8.00	CC(=O)Nc1cc(Oc2cnc3nc(Nc4cc5n(n4)CCN(C)C54CC4)n(C)c3c2C#N)ccn1 [Example I-119]
> 8.00	CC(=O)Nc1cc(Oc2cnc3nc(Nc4cc(O[C@@H]5CCN(C)C5)cc(C(F)(F)F)c4)n(C)c3c2Cl)ccn1 [Example I-100, (R)-N-(4-((7-chloro-1-methyl-2-((3-((1-methylpyrrolidin-3-yl)oxy)(trifluoromethyl)phenyl)amino)-1H-imidazo[4,5-b]pyridin-6-yl)oxy)pyridin-2-yl)acetamide]
> 8.00	COC(=O)Nc1cc(Oc2cnc3nc(Nc4cc5n(n4)CCOCC5(C)C)n(C)c3c2C#N)ccn1 [Example I-68, methyl(4-((7-cyano-2-((4,4-dimethyl-4,5,7,8-tetrahydropyrazolo[1,5-d][1,4]oxazepin-2-yl)amino)-1-methyl-1H-imidazo[4,5-b]pyridin-6-yl)oxy)pyridin-2-yl)carbamate]
6.00 to 7.30	CN1CC(OC(=O)Nc2cc(Oc3cnc4nc(Nc5cc(C(F)(F)F)cn(C)c5=O)n(C)c4c3C#N)ccn2)C1 [Example I-39, 1-Methylazetidin-3-yl(4-((7-cyano-1-methyl-2-((1-methyl-2-oxo-5-(trifluoromethyl)-1,2-dihydropyridin-3-yl)amino)-1H-imidazo[4,5-b]pyridin-6-yl)oxy)pyridin-2-yl)carbamate]
> 8.00	Cn1c(Nc2cc3n(n2)CCOC3(C)C)nc2ncc(Oc3ccnc(NC(=O)O[C@H]4CCOC4)c3)c(C#N)c21 [Example I-49, (S)-Tetrahydrofuran-3-yl(4-((7-cyano-2-((4,4-dimethyl-6,7-dihydro-4H-pyrazolo[5,1-c][1,4]oxazin-2-yl)amino)-1-methyl-1H-imidazo[4,5-b]pyridin-6-yl)oxy)pyridin-2-yl)carbamate]
7.30 to 8.00	CN(C)C(=O)Nc1cc(Oc2cnc3nc(Nc4cc5n(n4)CC(C)(C)OC5)n(C)c3c2C#N)ccn1 [Example I-73, 3-(4-((7-cyano-2-((6,6-dimethyl-6,7-dihydro-4H-pyrazolo[5,1-c][1,4]oxazin-2-yl)amino)-1-methyl-1H-imidazo[4,5-b]pyridin-6-yl)oxy)pyridin-2-yl)-1,1-dimethylurea]
> 8.00	CC(=O)Nc1cc(Oc2cnc3nc(Nc4cc5n(n4)CCCC5(F)F)n(C)c3c2Cl)ccn1 [Example I-92, N-(4-((7-chloro-2-((4,4-difluoro-4,5,6,7-tetrahydropyrazolo[1,5-a]pyridin-2-yl)amino)-1-methyl-1H-imidazo[4,5-b]pyridin-6-yl)oxy)pyridin-2-yl)acetamide]
> 8.00	CC(=O)Nc1cc(Oc2cnc3nc(Nc4cc(C(F)(F)F)cn(C)c4=O)n(C)c3c2)ccn1 [Example I-77, N-(4-((1-methyl-2-((1-methyl-2-oxo-5-(trifluoromethyl)-1,2-dihydropyridin-3-yl)amino)-1H-imidazo[4,5-b]pyridin-6-yl)oxy)pyridin-2-yl)acetamide]
5.30 to 6.00	CN1CCn2nc(Nc3nc4ncc(Oc5ccnc(NC(=O)OC6COC6)c5)c(Cl)c4n3C)cc2C1=O [Example I-54, oxetan-3-yl(4-((7-chloro-1-methyl-2-((5-methyl-4-oxo-4,5,6,7-tetrahydropyrazolo[1,5-a]pyrazin-2-yl)amino)-1H-imidazo[4,5-b]pyridin-6-yl)oxy)pyridin-2-yl)carbamate]
> 8.00	Cn1cc(C(F)(F)F)cc(Nc2nc3ncc(Oc4ccnc(NC(=O)N5CCCC5)c4)c(C#N)c3n2C)c1=O [Example I-11, N-(4-((7-cyano-1-methyl-2-((1-methyl-2-oxo-5-(trifluoromethyl)-1,2-dihydropyridin-3-yl)amino)-1H-imidazo[4,5-b]pyridin-6-yl)oxy)pyridin-2-yl)pyrrolidine-1-carboxamide]
> 8.00	CC(=O)Nc1cc(Oc2cnc3nc(Nc4ccc([C@@H]5CCCN5C)c(C(F)(F)F)c4)n(C)c3c2Cl)ccn1 (single isomer, unassigned) [Example I-108-b]
> 8.00	Cn1cc(C(F)(F)F)cc(Nc2nc3ncc(Oc4ccnc(NC(=O)OCCO)c4)c(C#N)c3n2C)c1=O [Example I-20, 2-Hydroxyethyl(4-((7-cyano-1-methyl-2-((1-methyl-2-oxo-5-(trifluoromethyl)-1,2-dihydropyridin-3-yl)amino)-1H-imidazo[4,5-b]pyridin-6-yl)oxy)pyridin-2-yl)carbamate]
> 8.00	CC(=O)Nc1cc(Oc2cnc3nc(Nc4ccc([C@H]5CCCN5C)c(C(F)(F)F)c4)n(C)c3c2C#N)ccn1 (single isomer, unassigned) [Example I-109-a]
> 8.00	CC(=O)Nc1cc(Oc2cnc3nc(Nc4cc(C(F)(F)F)cn(CCO)c4=O)n(C)c3c2C#N)ccn1 [Example I-81]
> 8.00	CC(=O)Nc1cc(Oc2cnc3nc(Nc4cc5n(n4)CCN5C(C)(C)C)n(C)c3c2C#N)ccn1 [Example I-115, N-(4-((2-((1-(tert-butyl)-2,3-dihydro-1H-imidazo[1,2-b]pyrazol-6-yl)amino)-7-cyano-1-methyl-1H-imidazo[4,5-b]pyridin-6-yl)oxy)pyridin-2-yl)acetamide]
> 8.00	Cn1c(Nc2cc3n(n2)CCOC3(C)C)nc2ncc(Oc3ccnc(NC(=O)N4CCCC4)c3)c(C#N)c21 [Example I-45, N-(4-((7-cyano-2-((4,4-dimethyl-6,7-dihydro-4H-pyrazolo[5,1-c][1,4]oxazin-2-yl)amino)-1-methyl-1H-imidazo[4,5-b]pyridin-6-yl)oxy)pyridin-2-yl)pyrrolidine-1-carboxamide]
> 8.00	Cn1cc(C(F)(F)F)cc(Nc2nc3ncc(Oc4ccnc(NC(=O)NC5CC5)c4)c(C#N)c3n2C)c1=O [Example I-42, 1-(4-((7-cyano-1-methyl-2-((1-methyl-2-oxo-5-(trifluoromethyl)-1,2-dihydropyridin-3-yl)amino)-1H-imidazo[4,5-b]pyridin-6-yl)oxy)pyridin-2-yl)-3-cyclopropylurea]
> 8.00	CO[C@@H]1CCN(C(=O)Nc2cc(Oc3cnc4nc(Nc5cc6n(n5)CCCC6(F)F)n(C)c4c3C#N)ccn2)C1 [Example I-33]
7.30 to 8.00	COCC(=O)Nc1cc(Oc2cnc3nc(Nc4cc(C(F)(F)F)n(C5CC6(CCOCC6)C5)n4)n(C)c3c2Cl)ccn1 [Example I-107, N-(4-((2-((1-(7-oxaspiro[3.5]nonan-2-yl)-5-(trifluoromethyl)-1H-pyrazol-3-yl)amino)-7-chloro-1-methyl-1H-imidazo[4,5-b]pyridin-6-yl)oxy)pyridin-2-yl)-2-methoxyacetamide]
7.30 to 8.00	Cn1c(Nc2cc3n(n2)CCCC3(F)F)nc2ncc(Oc3ccnc(NC(=O)N4CC[C@H](O)C4)c3)c(C#N)c21 [Example I-29, (S)-N-(4-((7-cyano-2-((4,4-difluoro-4,5,6,7-tetrahydropyrazolo[1,5-a]pyridin-2-yl)amino)-1-methyl-1H-imidazo[4,5-b]pyridin-6-yl)oxy)pyridin-2-yl)-3-hydroxypyrrolidine-1-carboxamide]
< 5.30	CC(=O)Nc1cc(Oc2cnc3nc(Nc4cc(C(C)(C)C(F)(F)F)on4)n(C)c3c2C#N)ccn1 [Example I-104, N-(4-((7-cyano-1-methyl-2-((5-(1,1,1-trifluoro-2-methylpropan-2-yl)isoxazol-3-yl)amino)-1H-imidazo[4,5-b]pyridin-6-yl)oxy)pyridin-2-yl)acetamide]
6.00 to 7.30	CC(=O)Nc1cc(Oc2cnc3nc(Nc4cc(N5CCCC5)nc(C(F)(F)F)c4)n(C)c3c2Cl)ccn1 [Example I-111, N-(4-((7-chloro-1-methyl-2-((2-(pyrrolidin-1-yl)-6-(trifluoromethyl)pyridin-4-yl)amino)-1H-imidazo[4,5-b]pyridin-6-yl)oxy)pyridin-2-yl)acetamide]
> 8.00	[2H]C([2H])([2H])N(C(=O)Nc1cc(Oc2cnc3nc(Nc4cc(C(F)(F)F)cn(C)c4=O)n(C)c3c2C#N)ccn1)C([2H])([2H])[2H] [Example I-52, 3-(4-((7-cyano-1-methyl-2-((1-methyl-2-oxo-5-(trifluoromethyl)-1,2-dihydropyridin-3-yl)amino)-1H-imidazo[4,5-b]pyridin-6-yl)oxy)pyridin-2-yl)-1,1-bis(methyl-d3)urea]
> 8.00	Cn1cc(C(F)(F)F)cc(Nc2nc3ncc(Oc4ccnc(NC(=O)N5CC(O)C5)c4)c(C#N)c3n2C)c1=O [Example I-8, N-(4-((7-cyano-1-methyl-2-((1-methyl-2-oxo-5-(trifluoromethyl)-1,2-dihydropyridin-3-yl)amino)-1H-imidazo[4,5-b]pyridin-6-yl)oxy)pyridin-2-yl)hydroxyazetidine-1-carboxamide]
> 8.00	COCCOC(=O)Nc1cc(Oc2cnc3nc(Nc4cc(C(F)(F)F)cn(C)c4=O)n(C)c3c2C#N)ccn1 [Example I-12, 2-methoxyethyl(4-((7-cyano-1-methyl-2-((1-methyl-2-oxo-5-(trifluoromethyl)-1,2-dihydropyridin-3-yl)amino)-1H-imidazo[4,5-b]pyridin-6-yl)oxy)pyridin-2-yl)carbamate]
> 8.00	CC(=O)Nc1cc(Oc2cnc3nc(Nc4cc([C@@H]5CCOC5)nc(C(F)(F)F)c4)n(C)c3c2Cl)ccn1 (single isomer, unassigned) [Example I-91-b]
7.30 to 8.00	Cn1c(Nc2cc3n(n2)CCCC3(F)F)nc2ncc(Oc3ccnc(NC(=O)N4CCOCC4)c3)c(C#N)c21 [Example I-25, N-(4-((7-cyano-2-((4,4-difluoro-4,5,6,7-tetrahydropyrazolo[1,5-a]pyridin-2-yl)amino)-1-methyl-1H-imidazo[4,5-b]pyridin-6-yl)oxy)pyridin-2-yl)morpholine-4-carboxamide]
> 8.00	CNC(=O)Nc1cc(Oc2cnc3nc(Nc4cc5n(n4)CCCC5(F)F)n(C)c3c2C#N)ccn1 [Example I-27, 1-(4-((7-cyano-2-((4,4-difluoro-4,5,6,7-tetrahydropyrazolo[1,5-a]pyridin-2-yl)amino)-1-methyl-1H-imidazo[4,5-b]pyridin-6-yl)oxy)pyridin-2-yl)-3-methylurea]
> 8.00	CO[C@H]1CCN(C(=O)Nc2cc(Oc3cnc4nc(Nc5cc6n(n5)CCCC6(F)F)n(C)c4c3C#N)ccn2)C1 [Example I-34, (S)-N-(4-((7-cyano-2-((4,4-difluoro-4,5,6,7-tetrahydropyrazolo[1,5-a]pyridin-2-yl)amino)-1-methyl-1H-imidazo[4,5-b]pyridin-6-yl)oxy)pyridin-2-yl)-3-methoxypyrrolidine-1-carboxamide]
